Values quoted from earlier work, collected in patent US20160120848A1, “SPECIFIC CANCER TREATMENT REGIMES WITH GANETESPIB” (SYNTA PHARMACEUTICALS CORP., priority 2013, published 2016).

Legend:
[1] = test system: Kasumi-1 cells; details: Kasumi-1, acute myeloid leukemia cell line with c-Kit mutation; cited from earlier work
[2] = test system: FLT3 with Hsp90; details: cited from earlier work
[3] = test system: leukemia cells that express either wild type FLT3 or FLT3-ITD mutations; details: cells expressing wild type FLT3 or FLT3-ITD mutations; cited from earlier work

## C=CCNC1=C2C[C@@H](C)C[C@H](OC)[C@H](O)[C@@H](C)/C=C(\C)[C@H](OC(N)=O)[C@@H](OC)/C=C\C=C(/C)C(=O)NC(=CC1=O)C2=O [17AAG]
[1]
  apoptosis: induce apoptosis
[2]
  effect on association of FLT3 with Hsp90: disrupt the association of FLT3 with Hsp90
[3]
  growth of leukemia cells: inhibited
